Measurements as given in patent US6846817B2 (Regents of the University of Minnesota, priority 1999, dated 2005).
Where a name gives a salt, the structure may show the parent alone. Read-outs that look alike come from different tables or passages of the source.

Columns and labels:
serotonin transporter = serotonin transporter (Homo sapiens, UniProt P31645); experiment: Binding to serotonin transporter sites
nerve-injured mice = experiment: Test G: Chung model of neuropathic pain, inhibition of tactile sensitivity; format: in vivo, mouse
Experimental: After hemostasis is confirmed, the wound is sutured with 3-0 silk thread and the skin closed with sterile wound clips. The animals are fully mobile within thirty minutes of cessation of anesthetic. As a control, in a separate group of animals, a sham surgery identical to the above (but without nerve ligation) is performed. Nociception is evaluated by responsiveness to multiple applications (10 per hindpaw) of a single vF filament to the plantar surface of each hind paw. When the stimulus is of sufficient force, the mouse will lick, withdraw and/or shake the paw; this action represents the behavioral endpoint. In nerve-injured mice, a vF filament (#3.61) exerting 3.3 mN of force elicited 66±1.3% responsiveness on the paw ipsilateral to the injury.
Inhibition of Tactile Sensitivity. Varying doses of the compounds are administered to test for inhibition of tactile sensitivity. Percent inhibition is determined relative to the mean number of paw withdrawals (PW) elicited by force and according to the following equation: [formula] Each mouse serves as its own control.
Three groups of animals were used for this experiment. Animals in each group received an intrathecal injection of physiological saline to assess the control response. […] The responses were assessed as described above.

Male Wistar rats = details: rat, in vivo
hippocampal synaptosomes = experiment: Test E: [3H]ACh release; format: cell-based, rat
Experimental: Drug-induced release of [^3H]ACh from hippocampal synaptosomes was measured as described by Sullivan et al. (1997). (J. Pharmacol. Exptl. Ther. 283: 235-246). The F4 synaptosomal fraction was washed with Kreb's buffer containing 118.5 mM NaCl, 25 mM NaHCO3, 1.2 mM KCl, 1.2 mM KH2PO4, 2.5 mM CaCl2, 2.5 mM MgCl2, 10 mM glucose gassed with 95% O2/5% CO2 to pH 7.4 and re-suspended at 1 mg protein/mL. The synaptosomes were loaded with [^3H]choline by incubation with 0.8 μM [^3H]choline (2 Ci/mmol). Aliquots of the incubation mixture were then loaded into the perfusion chamber of a Brandell harvester and perfused with Kreb's buffer (37° C.) at a flow rate of 0.25 mL/min. Three-minute fractions were collected and measured for radioactivity. Drugs for study were administered as 20-s pulses. The [^3H]ACh release evoked by study compounds was normalized to (−)-nicotine-evoked release and to the total radioactivity accumulated by synaptosomes. Evoked release of [^3H]ACh from rat hippocampal synaptosomes was measured as the area under the peak above base release. The EC50 value is determined by nonlinear least squares regression analysis.

dopamine D2 receptors = dopamine D2 receptors (Homo sapiens, UniProt P14416); experiment: Binding to dopamine D2 receptors
dopamine transporter = dopamine transporter (Homo sapiens, UniProt Q01959); experiment: Binding to dopamine transporter sites
[1] = test system: nicotinic acetylcholine receptor (nAChR); experiment: Test C: 86Rb+ efflux from rat cortical synaptosomes; format: cell-based
striatal synaptosomes = experiment: Test D: striatal [3H]dopamine release; format: cell-based, rat
[2] = molecular target: α4β2 nicotinic acetylcholine receptor subtype (Rattus norvegicus, UniProt P09483+P12390); details: cited from earlier work
α4β2 nicotine receptor = α4β2 nicotine receptor (Rattus norvegicus, UniProt P09483+P12390); experiment: Test A: [3H]cytisine binding
[3] = molecular target: neuronal [3H]-cytisine binding site (Homo sapiens, UniProt P17787+P43681); details: read-out: Ki, neuronal [3H]-cytisine binding site; cited from earlier work
[4] = test system: ovariectomized female rats; experiment: Test F: object recognition memory test; format: in vivo, rat
α7 subtype = α7 subtype (Homo sapiens, UniProt P36544); details: read-out: Ki at the α7 subtype; cited from earlier work
[5] = test system: nicotinic acetylcholine receptor as PC12 cells; details: cited from earlier work
[6] = molecular target: human muscle nicotinic acetylcholine receptor subtype (Homo sapiens, UniProt P02708+P07510+P11230+Q07001); details: cited from earlier work
[7] = rat brain, compounds tested in racemic form, read-out: Ki-[3H]Cytisine

dopamine D2 receptors, sequence (P14416 whole entry): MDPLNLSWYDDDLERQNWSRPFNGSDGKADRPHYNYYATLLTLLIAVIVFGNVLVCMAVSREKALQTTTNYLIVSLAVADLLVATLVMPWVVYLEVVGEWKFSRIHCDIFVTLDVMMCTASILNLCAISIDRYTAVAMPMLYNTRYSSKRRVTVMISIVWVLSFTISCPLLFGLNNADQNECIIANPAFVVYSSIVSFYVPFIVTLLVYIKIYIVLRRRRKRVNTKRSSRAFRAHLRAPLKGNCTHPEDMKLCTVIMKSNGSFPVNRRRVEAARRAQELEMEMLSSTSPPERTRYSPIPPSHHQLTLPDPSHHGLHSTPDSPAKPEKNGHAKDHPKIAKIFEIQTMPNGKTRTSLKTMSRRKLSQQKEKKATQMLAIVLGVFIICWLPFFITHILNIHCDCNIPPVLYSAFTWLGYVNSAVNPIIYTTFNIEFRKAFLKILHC
serotonin transporter, sequence (P31645 whole entry): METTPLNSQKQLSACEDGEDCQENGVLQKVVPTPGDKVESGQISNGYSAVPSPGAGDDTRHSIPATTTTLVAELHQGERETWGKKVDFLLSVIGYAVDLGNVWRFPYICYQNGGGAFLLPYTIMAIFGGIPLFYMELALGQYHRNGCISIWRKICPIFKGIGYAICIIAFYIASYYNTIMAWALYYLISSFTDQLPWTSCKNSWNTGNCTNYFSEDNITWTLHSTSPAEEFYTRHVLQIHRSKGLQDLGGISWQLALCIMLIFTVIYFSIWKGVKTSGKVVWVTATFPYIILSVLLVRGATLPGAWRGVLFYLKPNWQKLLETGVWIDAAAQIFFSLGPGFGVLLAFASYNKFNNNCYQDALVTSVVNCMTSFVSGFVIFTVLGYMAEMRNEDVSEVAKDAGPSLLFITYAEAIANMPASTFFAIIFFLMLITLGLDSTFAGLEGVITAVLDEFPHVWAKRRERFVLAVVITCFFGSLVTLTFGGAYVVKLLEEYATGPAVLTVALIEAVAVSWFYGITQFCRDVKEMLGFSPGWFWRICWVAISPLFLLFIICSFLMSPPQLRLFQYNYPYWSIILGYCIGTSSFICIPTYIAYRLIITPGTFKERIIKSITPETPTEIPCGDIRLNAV
dopamine transporter, sequence (Q01959 whole entry): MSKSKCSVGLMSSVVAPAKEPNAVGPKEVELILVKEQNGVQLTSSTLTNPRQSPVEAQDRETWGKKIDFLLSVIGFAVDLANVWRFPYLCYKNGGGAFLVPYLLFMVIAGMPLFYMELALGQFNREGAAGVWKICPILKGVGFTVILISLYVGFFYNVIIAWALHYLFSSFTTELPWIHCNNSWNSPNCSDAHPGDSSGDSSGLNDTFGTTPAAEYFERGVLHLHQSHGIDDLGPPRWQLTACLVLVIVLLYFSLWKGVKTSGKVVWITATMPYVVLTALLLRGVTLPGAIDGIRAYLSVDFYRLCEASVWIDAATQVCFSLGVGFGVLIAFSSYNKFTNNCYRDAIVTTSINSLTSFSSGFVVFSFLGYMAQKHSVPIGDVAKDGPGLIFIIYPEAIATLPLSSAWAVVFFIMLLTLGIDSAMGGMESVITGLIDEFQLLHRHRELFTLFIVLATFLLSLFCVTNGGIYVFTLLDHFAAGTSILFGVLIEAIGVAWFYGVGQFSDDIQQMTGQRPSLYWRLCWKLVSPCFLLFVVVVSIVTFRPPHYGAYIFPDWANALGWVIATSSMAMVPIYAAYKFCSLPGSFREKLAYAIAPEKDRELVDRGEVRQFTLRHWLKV
α4β2 nicotine receptor, sequence (P09483 31-630): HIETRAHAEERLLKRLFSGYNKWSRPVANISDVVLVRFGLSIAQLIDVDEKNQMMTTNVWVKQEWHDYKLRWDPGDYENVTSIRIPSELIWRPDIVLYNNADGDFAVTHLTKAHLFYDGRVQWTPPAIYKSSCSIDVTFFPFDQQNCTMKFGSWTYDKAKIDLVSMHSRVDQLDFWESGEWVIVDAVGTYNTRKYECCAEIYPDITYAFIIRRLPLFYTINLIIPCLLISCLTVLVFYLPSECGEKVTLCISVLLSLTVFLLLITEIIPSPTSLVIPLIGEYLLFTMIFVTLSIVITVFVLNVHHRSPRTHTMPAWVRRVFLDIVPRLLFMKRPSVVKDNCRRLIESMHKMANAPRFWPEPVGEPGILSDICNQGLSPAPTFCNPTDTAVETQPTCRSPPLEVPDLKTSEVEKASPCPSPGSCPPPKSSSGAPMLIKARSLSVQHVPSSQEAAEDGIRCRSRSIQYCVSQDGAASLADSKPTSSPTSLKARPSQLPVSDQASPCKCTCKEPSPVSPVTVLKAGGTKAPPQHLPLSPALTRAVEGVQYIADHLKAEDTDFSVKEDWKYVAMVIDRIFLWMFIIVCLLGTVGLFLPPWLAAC
α4β2 nicotine receptor, sequence (P12390 25-500): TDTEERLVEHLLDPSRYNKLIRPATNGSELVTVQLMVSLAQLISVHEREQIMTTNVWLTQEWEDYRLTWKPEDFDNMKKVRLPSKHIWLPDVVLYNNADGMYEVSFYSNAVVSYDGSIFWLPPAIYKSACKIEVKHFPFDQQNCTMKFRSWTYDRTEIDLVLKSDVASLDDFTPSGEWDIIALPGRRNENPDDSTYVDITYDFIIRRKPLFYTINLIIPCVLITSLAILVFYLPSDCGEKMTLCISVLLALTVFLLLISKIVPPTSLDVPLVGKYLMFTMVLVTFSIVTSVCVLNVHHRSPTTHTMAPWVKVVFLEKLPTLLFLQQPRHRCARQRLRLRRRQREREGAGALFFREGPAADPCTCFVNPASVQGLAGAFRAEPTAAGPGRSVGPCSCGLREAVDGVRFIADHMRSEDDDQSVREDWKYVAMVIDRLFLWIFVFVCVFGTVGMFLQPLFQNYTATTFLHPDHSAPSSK
α7 subtype, sequence (P36544 23-502): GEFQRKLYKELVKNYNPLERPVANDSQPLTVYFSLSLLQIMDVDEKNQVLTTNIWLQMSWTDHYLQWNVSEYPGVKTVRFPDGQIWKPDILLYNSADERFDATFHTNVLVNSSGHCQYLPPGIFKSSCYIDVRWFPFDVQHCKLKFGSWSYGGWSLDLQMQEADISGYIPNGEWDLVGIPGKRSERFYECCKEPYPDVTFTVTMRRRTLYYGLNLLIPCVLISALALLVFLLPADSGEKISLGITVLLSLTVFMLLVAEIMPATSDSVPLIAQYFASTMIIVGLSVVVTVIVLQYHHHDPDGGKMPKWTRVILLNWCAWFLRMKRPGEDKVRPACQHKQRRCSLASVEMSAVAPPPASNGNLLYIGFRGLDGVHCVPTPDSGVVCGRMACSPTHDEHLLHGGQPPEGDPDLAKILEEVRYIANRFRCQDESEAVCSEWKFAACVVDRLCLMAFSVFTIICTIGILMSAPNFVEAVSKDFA
neuronal [3H]-cytisine binding site, sequence (P43681 29-627): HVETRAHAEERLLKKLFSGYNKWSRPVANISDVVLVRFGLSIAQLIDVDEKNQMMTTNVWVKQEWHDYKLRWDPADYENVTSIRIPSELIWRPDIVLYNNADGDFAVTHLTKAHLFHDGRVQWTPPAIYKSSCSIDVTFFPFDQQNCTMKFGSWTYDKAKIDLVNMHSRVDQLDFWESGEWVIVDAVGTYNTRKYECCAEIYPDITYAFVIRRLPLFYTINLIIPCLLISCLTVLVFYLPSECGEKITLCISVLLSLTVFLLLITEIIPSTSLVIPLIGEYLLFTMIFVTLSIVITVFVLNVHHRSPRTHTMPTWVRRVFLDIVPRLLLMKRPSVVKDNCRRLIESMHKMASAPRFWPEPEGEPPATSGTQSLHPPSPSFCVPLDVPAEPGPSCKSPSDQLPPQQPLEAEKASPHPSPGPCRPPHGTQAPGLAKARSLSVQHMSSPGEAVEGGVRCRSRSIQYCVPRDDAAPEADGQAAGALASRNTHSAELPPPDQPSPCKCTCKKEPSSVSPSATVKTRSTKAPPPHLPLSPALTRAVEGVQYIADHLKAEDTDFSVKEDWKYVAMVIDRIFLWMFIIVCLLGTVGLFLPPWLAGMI
neuronal [3H]-cytisine binding site, sequence (P17787 26-502): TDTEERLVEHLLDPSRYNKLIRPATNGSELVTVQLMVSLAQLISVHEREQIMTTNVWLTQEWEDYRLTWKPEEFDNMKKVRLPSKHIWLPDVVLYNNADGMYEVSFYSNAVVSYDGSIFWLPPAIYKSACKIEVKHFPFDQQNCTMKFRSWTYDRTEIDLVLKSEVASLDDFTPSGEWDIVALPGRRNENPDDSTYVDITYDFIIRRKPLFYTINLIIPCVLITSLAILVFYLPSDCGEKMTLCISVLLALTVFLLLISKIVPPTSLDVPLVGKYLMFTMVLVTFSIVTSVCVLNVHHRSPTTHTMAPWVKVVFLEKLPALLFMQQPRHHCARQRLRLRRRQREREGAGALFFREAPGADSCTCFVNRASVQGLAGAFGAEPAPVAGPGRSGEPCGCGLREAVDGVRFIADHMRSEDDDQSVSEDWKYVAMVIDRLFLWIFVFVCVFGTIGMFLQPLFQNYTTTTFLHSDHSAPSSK
α4β2 nicotinic acetylcholine receptor subtype, sequence (P09483 31-630): as the sequence (P09483 31-630) above
α4β2 nicotinic acetylcholine receptor subtype, sequence (P12390 25-500): as the sequence (P12390 25-500) above

SMILES: CN1CCCCC1C1CCc2ccc(O)cc2O1 (stereo not drawn) [Compound 3, erythro-7-Hydroxy-2-(1-methylpiperidin-2-yl)chroman]
- Ki (serotonin transporter): > 10 µM
- inhibition of tactile sensitivity (in words) (nerve-injured mice; intrathecal 30, 60 and 100 pmol): dose-dependent inhibition
- inhibition of tactile sensitivity (nerve-injured mice; intrathecal, highest dose tested 100 pmol, FIG. 13): 60%
- time of death post-injection (Male Wistar rats; male, Wistar, ip): ≤ 4 min
- lethal effects antagonized by mecamylamine pretreatment (Male Wistar rats): three of the four animals
- observed effect after administration (Male Wistar rats; ip): severe convulsions
- stimulation of [3H]ACh release (in words) (hippocampal synaptosomes): can stimulate the release
- Ki (dopamine D2 receptors): > 10 µM
- Ki (dopamine transporter): > 10 µM
- potency to stimulate the release of 86Rb+ (in words) ([1]; compound 3 at 1, 5, 10 and 100 μM, compound 1 at 10 and 100 μM, versus S-(−)-nicotine, FIG. 9): comparable potency
- concentration at which peak effects on [3H]dopamine release are obtained (striatal synaptosomes): ~10 µM
- effect on K+-evoked release of [3H]dopamine (in words) (striatal synaptosomes): appeared to suppress
- stimulation of [3H]dopamine release (in words) (striatal synaptosomes): dose-dependent stimulation

SMILES: CN1CCC[C@H]1c1cccnc1 [S-(−)-nicotine, reference compound]
- stimulation of [3H]dopamine release (in words) (striatal synaptosomes): dose-dependent

SMILES: Cc1ncccc1OC[C@@H]1CCCN1 [ABT-089 (S)]
- less potent than ABT-594 as an inhibitor of [3H]-nicotine binding [2]: about 300 fold

SMILES: COc1ccc2c(c1)CC(CC1CCCCN1C)=C2 (racemic) [Compound 14, 1-Methyl-2-(6-methoxyinden-2-yl)methylpiperidine hydrochloride]
- Ki (α4β2 nicotine receptor; [7]): 8.95 µM

SMILES: Cc1cc([C@@H]2CCCN2C)on1 [ABT-418]
- Ki [3]: 0.0045 µM

SMILES: CN1CCCCC1C1CCc2ccccc2O1 (single isomer, unassigned) [Compound 1, erythro-2-(1-Methylpiperidin-2-yl)chroman]
- Ki (serotonin transporter): > 10 µM
- Ki (dopamine D2 receptors): > 10 µM
- Ki (dopamine transporter): > 10 µM
- peak response of 86Rb+ release (in words) [1]: could match the peak response of S-(−)-nicotine
- potency to stimulate the release of 86Rb+ (in words) [1]: lower potency
- stimulation of [3H]dopamine release (in words) (striatal synaptosomes): failed to stimulate the release

SMILES: COc1cc2c(cc1OC)C(=O)C(CC1CCN(Cc3ccccc3)CC1)C2 (centres unmarked) [ARICEPT, reference compound]
- time spent exploring the new object ([4]; rat, in vivo): 60.1±5.4 % (SEM)

SMILES: CN1CCCCC1C1CCc2ccccc2O1 (single isomer, unassigned) (as salt: salt) [Compound 1, erythro-2-(1-Methylpiperidin-2-yl)chroman]
- melting point: 164 to 166 °C

SMILES: CN1CCCCC1C1CCc2ccc(O)cc2O1 (single isomer, unassigned) [Compound 8, threo-7-Hydroxy-2-(1-methylpiperidin-2-yl)chroman]
- Ki (serotonin transporter): > 10 µM
- Ki (dopamine D2 receptors): > 10 µM
- Ki (dopamine transporter): > 10 µM

SMILES: O=c1cccc2n1C[C@@H]1CNC[C@H]2C1 [Cytisine, reference compound]
- Ki (α4β2 nicotine receptor; Ki-[3H]Cytisine): 0.0009 µM
- Ki (α4β2 nicotine receptor; read-out: Ki-[3H]Cytisine): 0.00278 µM

SMILES: CNCC/C=C/c1cccnc1 [RJR-2403]
- Ki (α7 subtype): 36 µM
- receptor activation (in words) [5]: does not significantly activate
- receptor activation (in words) [6]: does not significantly activate

SMILES: CN1CCCCC1CC1=Cc2ccc(O)cc2C1 (racemic) [Compound 15, 1-Methyl-2-(6-hydroxyinden-2-yl)methylpiperidine hydrochloride]
- Ki (α4β2 nicotine receptor; [7]): > 10 µM

SMILES: CN1CCCC1C1CCc2ccc(O)cc2O1 (single isomer, unassigned) [Compound 11, erythro-7-Hydroxy-2-(1-methylpyrrolidin-2-yl)chroman]
- [3H]ACh release (hippocampal synaptosomes; Table 2 summary in words): No intrinsic activity
- stimulation of [3H]ACh release (in words) (hippocampal synaptosomes; cortical synaptosomes as worded, FIG. 11): little intrinsic activity
- exploration times versus saline-treated controls (in words) ([4]; exploration phase, 1 μmol/kg/day): not significantly different
- time spent exploring the new object ([4]; recognition phase four hours after exploration, after 7 days s.c. osmotic mini pump, compound 11 1 μmol/kg/day, ARICEPT 1 mg/kg/day): 80.5±5 % (SEM)
- stimulation of [3H]dopamine release (in words) (striatal synaptosomes; FIG. 10, compound 1 at doses of up to 10 μM): stimulates the release
- [3H]Dopamine release (striatal synaptosomes; Table 2 summary in words): High intrinsic activity

SMILES: CN1CCCCC1C1CCc2c(O)cccc2O1 (stereo not drawn) [Compound 5, erythro-5-Hydroxy-2-(1-methylpiperidin-2-yl)chroman]
- Ki (serotonin transporter): > 10 µM
- Ki (dopamine D2 receptors): > 10 µM
- Ki (dopamine transporter): > 10 µM

SMILES: CN1CCCCC1C1CCc2ccc(O)cc2O1 (stereo not drawn) [Compound 4, erythro-7-Hydroxy-2-(1-methylpiperidin-2-yl)chroman]
- [3H]ACh release (hippocampal synaptosomes): High intrinsic activity
- 86Rb+ efflux [1]: High intrinsic activity
- [3H]Dopamine release (striatal synaptosomes): Low to moderate activity

SMILES: CN1CCCCC1CC1=Cc2ccccc2C1 (racemic) [Compound 13, 1-Methyl-2-(2-indenyl)methylpiperidine hydrochloride]
- Ki (α4β2 nicotine receptor; [7]): 7.91 µM
